Measured values reported in patent US9533957B2, “Tetrazines and method of synthezising the same” (The Regents of the University of California, priority 2012, dated 2017).
{cycp1} = methylcyclopropene carbamate coupled through the 3' amine; {3AmMO} = amino modifier (IDT nomenclature)

Assays:
[1] = Fluorescence turn-on spectroscopy of tetrazine-Alexa Fluor 488 with Ac4ManNCyc; format: physicochemical
Procedure: Mannosamine-cyclopropene (Ac4ManNCyc) and tetrazine-Alexa-Fluor 488 stocks were prepared at 1 and 0.1 mM, respectively, in phosphate-buffered saline (PBS) pH 7.4. Fluorescence turn-on was measured using a Perkin Elmer LD-45 spectrometer, with the excitation wavelength set to 480/5 nm, and emission scanned over 490-620 nm (5-nm slit width) at a rate of 50 nm/min. Reaction conditions were 50 μM tetrazine-Alexa-Fluor 488 and 100 μM Ac4ManNCyc in PBS pH 7.4 buffer at room temperature.

[2] = tested on: LS174T cells; assay: Live-cell microscopy of metabolically incorporated cyclopropene sugar; format: cell-based, human; conditions: 100 μM for 48 hours, then 10 μM tetrazine-Alexa Fluor 488 for 1 hour
Procedure: (§1) SKBR3 and LS 174T cells were grown in cDMEM media supplemented with 10% fetal bovine serum, 1% L-glutamine, 1% penicillin/streptomycin. Cells were incubated in 5.0% carbon dioxide, 95% humidity at 37° C. Generally, cells were grown in T-75 tissue culture flasks, seeded at densities between 500,000 and 750,000 cells per flask (cells were quantified with the Life Technologies Countess automated cell counter). The cells were trypsinized with TrypLE Express and resuspended in cDMEM. Cells were allowed to incubate for two days before supplementing with Ac4ManNCyc (N-cyclopropeneacetylmannosamine) or Ac4GlcNAz (N-azidoacetylglucosamine). The cells were then analyzed via confocal microscopy and flow cytometry as described below.
(§2) The SKBR3 and LS174T cells were incubated for two days in the presence of 100 μM of Ac4ManNCyc and/or 50 μM Ac4GlcNAz on a Lab-Tek chamber slide maintained in cDMEM medium. Treatment of cells with tunicamycin was done by preparing a 0.2 mg/mL stock in DMSO, which was diluted to a final working concentration of 1.2 μM tunicamycin in cDMEM (0.5% DMSO). Cells were washed 3× with phosphate-buffered saline (PBS) and incubated for 1 hour at 37° C. in 10 μM tetrazine-BODIPY TMR-X, 10 μM tetrazine-Alexa flour 488 and/or 15 μM dibenzocyclooctyne (DIBO)-Alexa Fluor 647 in cDMEM. The media was aspirated, and cells were washed twice with PBS before imaging. All photos were collected with an Olympus FV1000 confocal microscope using ImageJ 1.45j software package.
(§3) In order to determine if Ac4ManNCyc was incorporated effectively by cells, we incubated adherent human breast cancer (SKBR3) and colon cancer (LS174T) cell lines with 100 μM Ac4ManNCyc for 48 hours in cell media and serum. After incubation, cells were thoroughly washed and then reacted for 1 hour with 10 μM of fluorogenic Alexa Fluor 488 tetrazine. After a second wash, cells were imaged by confocal microscopy (Olympus FV1000). […] In order to ensure that the staining was due to glycan uptake of the probe, we also performed controls by exposing cells to 100 μM Ac4ManNCyc and inhibiting uptake by using glycosylation inhibitors (ie. tunicamycin and αBnGalNAc) or 20 mM of ManNAc as a competitive substrate.^[14] […] These experiments provide evidence that the staining patterns are reporting on glycosylation and uptake of the unnatural cyclopropene mannosamine. We also performed additional studies using flow cytometry to quantitate the relative uptake of sugars that corroborated the imaging data.

[3] = tested on: SKBR3 cells; assay: as above; format: cell-based, human; conditions: SKBR3; 100 μM for 48 hours, then 10 μM tetrazine-Alexa Fluor 488 for 1 hour
Procedure: as §1, §2, §3

[4] = tested on: SKBR3 cells; assay: Analysis of cell surface cyclopropenes by flow cytometry; format: cell-based, human; conditions: followed by tetrazine imaging probe
Procedure: After the incubating the adherent SKBR3 cells in 100 μM of Ac4ManNCyc (1.2 μM tunicamycin and/or 1 mM aBnGalNAc was used in experiments requiring glycosylation inhibitors) they were washed twice in PBS and then incubated in 10 μM of tetrazine-Alexa flour 488 for 1 hour at 37° C. Control cells were not exposed to Ac4ManNCyc and incubated in 10 μM of tetrazine-Alexa flour 488 for 1 hour at 37° C. Cells were then resuspended in 1-2 ml of cDMEM (5.0×10^5 to 1.0×10^6 per ml) using a rubber policeman. The cells were passed through a 25 gauge syringe to ameliorate excessive clumping, and subjected to analysis by flow cytometry using a 200 mW 488 nm blue solid state laser on the Partec Space Flow Cytometer (Partec).

[5] = tested on: LS174T human colon cancer cells; assay: Simultaneous imaging of two metabolically incorporated unnatural sugars and cross reactivity; format: cell-based
Procedure: as §2
Finally, we tested whether or not we could simultaneously image two different metabolically incorporated unnatural sugar derivatives, Ac4ManNCyc and tetraacetylated N-azidoacetylgalactosamine (Ac4GalNAz). […] Recent experimental work has shown that alkenes and azides can be mutually orthogonal to each other, even when using highly strained trans-cyclooctenes. Additionally, the Houk group has calculated that methyl-cyclopropene handles, such as those we have previously developed, should be mutually orthogonal to azide cyclooctyne reactions. We incubated LS174T human colon cancer cells with 100 μM Ac4ManNCyc and Ac4GalNAz for 2 days. After incubation, we sequentially stained the cells with 10 μM tetrazine-Alexa Fluor 488 and 15 μM dibenzocyclooctyne (DIBO) 647. […] Similar results were obtained with the SKBR3 cell line. […] The ability to simultaneously label two different metabolically incorporated molecules using live-cell compatible inverse-Diels-Alder and Huisgen reactions expands the capabilities of bioorthogonal metabolic imaging.

[6] = Storage stability of cyclopropene derivatives; format: physicochemical; conditions: stored at −20° C.
[7] = Reaction rate determination of cyclopropenes with tetrazine 3; format: physicochemical
Procedure: A tetrazine 3 stock solution was prepared in DMSO and used to prepare tetrazine solutions at 0.6 mM final concentration in 12% v/v DMSO in ddH2O. Reactions were initiated with excess cyclopropene at final concentrations of 6.0, 8.0, and 10.0 mM. The disappearance of the tetrazine absorption peak at 520 nm was tracked over the reaction timeframe by measuring the absorption spectra using a NanoDrop 2000c spectrophotometer (Thermo Scientific). Samples were placed in a quartz cuvette with 10-mm pathlength and stirred at the maximum speed setting of the instrument. The temperature was uncontrolled by the instrument for room temperature (20° C.) measurements, and set and equilibrated at 37° C. for the higher temperature experiments.
Absorption spectra were measured manually over time. Absorption peak signal was taken as the average of measurements at 519-521 nm. Baseline signal was determined as the sloping line connecting the measured background levels preceding and following the tetrazine peak (410-430 nm and 590-610 nm, respectively). Final peak intensity value was taken as the signal above the baseline. Reaction rates were obtained by fitting the exponential decays of tetrazine peak absorption intensity as a pseudo first order reaction. Nonlinear data fits were performed with GraphPad Prism. Tetrazine reactions with cyclopropene carbamate 5 were carried out at 20 and 37° C. (data points and corresponding fitted curves at 20° C. in FIG. 51, 37° C. in FIG. 2c). Tetrazine reactions with cyclopropene carboxamide 2 were done at 37° C. ([…]. A representative comparison fit is shown for cyclopropenes 5 and 2 at 8.0 mM concentration reacting at 37° C. with 0.6 mM tetrazine.

[8] = Stability of cyclopropene 5 by 1H NMR; format: physicochemical; conditions: 37° C., over 24 hours
Procedure: Cyclopropene 5 was kept at 37° C. in D2O: DMSO-d6=10:1 and 1H NMR was taken over a period of 24 h at the following time points: 0.0, 0.5, 1.0, 1.5, 3.0, 6.0 and 24.0 h. By comparing the peak abundance of the cyclopropene alkene proton (6.21 ppm) at different time points, we determined the stability of cyclopropene 5 (Figure S2).

[9] = tested on: 27mer DNA template; assay: Melting temperatures of DNA template with probes and ligation products; format: physicochemical; conditions: hybridization target against 27mer template; 250 mM NaCl in buffer; 1 μM each oligonucleotide
Procedure: Melting temperature of probes and ligation products in hybridization buffer (50 mM MOPS pH 7.5, 250 mM NaCl) were measured using a Beckman-Coulter DU 640 spectrophotometer equipped with a high performance temperature controller and micro auto six-cell holder. Samples at 1 μM concentration of each oligonucleotide were heated to 90° C. and slowly cooled to RT over 1-1.5 h before the measurements. Melting temperature values were obtained by cooling samples from 90° C. to 20° C. at the rate of 1° C./min and measuring at 1° C. increments with each read averaged over 1 s.

[10] = tested on: 27mer DNA template; assay: Template-driven ligation of tetrazine and cyclopropene oligonucleotide probes (fluorescence); format: biochemical
Procedure: (§4) Tetrazine and cyclopropene-modified oligonucleotide probes were ligated in the presence of a DNA or RNA template at a 1:1:1 ratio. Reactions were done in varying solution and temperature conditions, as indicated. Main hybridization buffer was 50 mM MOPS at pH 7.5, 250 mM NaCl. Ligation reactions with a mismatched DNA template were performed in 5 mM MgCl2 in standard 1× Tris-borate buffer (purchased as 10× UltraPure TBE from Invitrogen: 1.0 M Tris pH 8.4, 0.9 M Boric acid, 10 mM EDTA).
(§5) Ligation reactions were done in standard 96 fluorescence well plates using SpectraMax GeminiXS (Molecular Devices). Temperature was set by the instrument. Where indicated by standard deviations, experiments were performed multiple times. In order to avoid any secondary structure artifacts, DNA or RNA template with added tetrazine probe was first heated to 90° C. and crash-cooled on ice for 2 min right before the experiment. Each well was filled with a total of 100 μL reaction solution, and reactions were timed from the addition of the cyclopropene probe as the last step before starting the measurements. Wells were scanned every 20-60 s depending on the speed of the reactions by using 485 nm excitation and 538 nm emission with the cutoff set at 495 nm. Control reactions without template were done in parallel each time. Buffer-only well intensities were subtracted from the measured raw data before analysis. Data was analyzed using GraphPad Prism 6.0 by applying a nonlinear fit of a one-phase association to each curve where fluorescein signal during reaction was measured.

[11] = tested on: 27mer RNA template; assay: Ligation of oligonucleotide probes with an RNA template; format: biochemical; conditions: ligating 13merF15′tet and 13mer3′cycp1
Procedure: as §4
as §5, with “Wells were scanned every 20-60 s depending on the speed of the reactions by using 485 nm excitation and 538 nm emission with the cutoff set at 495 nm. Control reactions without template were done in parallel each time.” left out

[12] = tested on: singly-mismatched 27mer template; assay: Single nucleotide mismatch discrimination in probe ligation; format: biochemical; conditions: 5 mM MgCl2 in Tris-borate buffer at 37° C.; reaction with 13merF15′tet
Procedure: as §4
A single nucleotide mismatch effect was determined on reaction completion in discriminating conditions from FIG. 2C and is depicted in Figure S8. TBE 1× buffer (pH 8.4, Invitrogen) with 5 mM MgCl2 solution at 37° C. was used for incubation of 13mer5′tet with 13mer3′cycp1 in the presence of a fully matched template, or a sample containing a fully matched template and a single mismatched template, and a sample with only a singly-mismatched template. All DNA concentrations were kept at 1 μM. Fluorescence measurements were taken using a Perkin Elmer LD-45 spectrophotometer, as described above, with the samples in the quartz cuvettes warmed with attached circulating water bath. Initial timepoints were taken of prewarmed samples prior to template addition, and subtracted from the final intensity values (Figure S8).

1,3,4,6-Tetra-O-acety-N-cyclopropene tag-D-mannosamine [Ac4ManNCyc]
fluorogenic response of quenched tetrazine probe [1]: elicits fluorogenic responses | cell surface staining by confocal microscopy [2]: bright surface staining | cell surface staining by confocal microscopy [3]: bright surface staining | fluorescence intensity by flow cytometry compared to controls [4]: increased fluorescence intensity | cell surface staining after co-incubation of both sugars ([5]; 100 μM, 2 days, stained with 10 μM tetrazine-Alexa Fluor 488 and 15 μM DIBO 647): cell surface staining in both the fluorescent channels | cross reactivity: surface staining with DIBO 647 ([5]; cells incubated with only this sugar): minimal surface staining

2-methyl-cyclopropene carbamate [cyclopropene 5]
storage stability at −20° C. [6]: without degradation | rate constant ([7]; 20° C., 12% DMSO by volume): 7 ± 1 M⁻¹ s⁻¹ | improvement of rate constant compared to cyclopropene carboxamide 2 ([7]; 37° C.): approximately two orders of magnitude | second order rate constant ([7]; 37° C., water/DMSO (12% DMSO by volume)): 13 ± 2 M⁻¹ s⁻¹ | degradation in aqueous solutions [8]: no significant degradation

13mer3′cycp1: 5′-ATT CAA CAC TAC C/3AmMO/-cyclopropene-3′ (SEQ ID NO:5), methyl-cyclopropene carbamate cycp1 (DNA ATTCAACACTACC; DNA, 3' {3AmMO}-{cycp1}, backbone not given here)
Melting T [9]: 50.4 °C | reaction yield by LC/MS ([10]; disappearance of 13merF15′tet and appearance of product): approximately 92% | effective molarity of the intramolecular reaction ([10]; estimated assuming the reaction is limited by ligation): 53 mM | observed first order rate constant of DNA-templated reaction ([10]; reaction with 13merF15′tet in the presence of DNA template): 0.019 ± 0.001 s⁻¹ | time at which the fluorescence signal plateaus ([10]; reaction with 13merF15′tet, 1 μM 27mer template): about 200 s | ligation with RNA template compared with DNA template [11]: equally effective | effect of single mismatch (T to G) in template on reaction rate [12]: only a moderate difference
